Assay results: patent US9820983B2, “Immediate release pharmaceutical compositions comprising oxycodone and naloxone” (Purdue Pharma L.P., priority 2009, dated 2017)

Tests used:
[1] = Single dose bioavailability study of IR OXN 20/10 vs oxycodone IR capsule 20 mg and OXN PR 20/10 (Targin) in healthy subjects (Example 3); format: in vivo, human; details: oral, from the study treatments
Protocol: The study was an open-label, single-dose, 3-treatment, 3-period, randomised crossover. Each subject received single oral doses of IR OXN tablet 20/10 mg, oxycodone IR capsule 20 mg and OXN PR tablet 20/10 mg (Targin®). Subjects received each of the three treatments according to a random allocation schedule (RAS), with at least a 7-day washout period between each dosing.
Subjects attended a screening visit within 21 days of the first dosing day of Study Period 1. Eligible subjects then checked into the study unit on the day before dosing in each study period. Subjects were administered the appropriate study drug in a fasted state the following morning.
Pharmacokinetic blood samples were taken for 36 hours after administration of study drug in each study period, and subjects were discharged after the 36-hour blood sample.
IR OXN tablet 20/10 mg. The treatment was administered orally, in a fasted state, as follows: […]
Log-transformed data for the analytes oxycodone, noroxycodone, oxymorphone, noroxymorphone, naloxone, 6β-naloxol, naloxone-3-glucuronide and 6β-naloxol-3-glucuronide and the pharmacokinetic parameters AUCt, AUCINF and Cmax were analysed using a mixed effect linear model 18, with fixed terms for treatment and period and a random effect for subject.
Treatment ratios/differences and their associated 90% confidence intervals were calculated from the least square means.

[2] = Single dose study of dose proportionality of IR OXN tablets in healthy subjects (Example 2); format: in vivo, human; details: after IR OXN tablets, particularly with the lower doses
Description: The study was an open-label, single-dose, 4-treatment, 4-period, randomised crossover study in healthy male and female subjects conducted at a single study centre. […] Subjects received each of the four treatments according to a random allocation schedule (RAS), with at least a 7-day washout period between each dosing.
Subjects attended a screening visit within 21 days of the first dosing day of Study Period 1. Eligible subjects then checked into the study unit on the day before dosing in each study period. Subjects were administered the appropriate study drug in a fasted state the following morning. […]
The following pharmacokinetic parameters were calculated from the plasma concentrations of oxycodone, noroxycodone, oxymorphone, noroxymorphone, naloxone, 6β-naloxol, naloxone-3-glucuronide and 6β-naloxol-3-glucuronide: • Area under the plasma concentration-time curve measured from the time of dosing to the last measurable concentration (AUCt) • Area under the plasma concentration-time curve measured from the time of dosing and extrapolated to infinity (AUCinf) • Maximum observed plasma concentration (Cmax) • Time of maximum observed plasma concentration (tmax) • Terminal phase rate constant (LambdaZ) • Terminal phase half-life (t1/2Z) […]
AUCt values were calculated using the linear trapezoidal method. […]

**Q.** Which bioavailability of naloxone [1] does the source give for `C=CCN1CC[C@]23c4c5ccc(O)c4O[C@H]2C(=O)CC[C@@]3(O)[C@H]1C5` [Naloxone, naloxone] here?
**A.** very low

**Q.** What about the “plasma concentrations of naloxone” value [2] of the same molecule?
**A.** extremely low
